Laboratory results from the kinase profiling compilation of Christmann-Franck et al. (2016).

What follows are compounds tested against TXK (human) (UniProt P42681) (assay: radiometric filter-binding kinase assay, Kinase HotSpot). Conditions: compound 0.5 µM; ATP 10 µM.

| Structure (SMILES) | residual activity |
| --- | --- |
| N/C(=N\N=C/c1ccc(-c2cccc([N+](=O)[O-])c2)o1)N[N+](=O)[O-] | 98.3% |
| O=C1NC(=O)c2cc(Nc3ccc(F)cc3)c(Nc3ccc(F)cc3)cc21 | 84.1% |
| CCCCc1c(-c2ccc(O)cc2)[nH]c2nccnc12 | 65% |
| O=c1c2ccccc2[nH]c(=S)n1CCN1CCC(=C(c2ccc(F)cc2)c2ccc(F)cc2)CC1 | 100% |

Each compound was assayed against RPS6KA1 KD1 KD2 (human) (UniProt Q15418) in the same assay as above. Conditions: compound 0.5 µM; ATP 10 µM.
Sequence of RPS6KA1 KD1 KD2 (human) (Q15418 whole entry, looked up): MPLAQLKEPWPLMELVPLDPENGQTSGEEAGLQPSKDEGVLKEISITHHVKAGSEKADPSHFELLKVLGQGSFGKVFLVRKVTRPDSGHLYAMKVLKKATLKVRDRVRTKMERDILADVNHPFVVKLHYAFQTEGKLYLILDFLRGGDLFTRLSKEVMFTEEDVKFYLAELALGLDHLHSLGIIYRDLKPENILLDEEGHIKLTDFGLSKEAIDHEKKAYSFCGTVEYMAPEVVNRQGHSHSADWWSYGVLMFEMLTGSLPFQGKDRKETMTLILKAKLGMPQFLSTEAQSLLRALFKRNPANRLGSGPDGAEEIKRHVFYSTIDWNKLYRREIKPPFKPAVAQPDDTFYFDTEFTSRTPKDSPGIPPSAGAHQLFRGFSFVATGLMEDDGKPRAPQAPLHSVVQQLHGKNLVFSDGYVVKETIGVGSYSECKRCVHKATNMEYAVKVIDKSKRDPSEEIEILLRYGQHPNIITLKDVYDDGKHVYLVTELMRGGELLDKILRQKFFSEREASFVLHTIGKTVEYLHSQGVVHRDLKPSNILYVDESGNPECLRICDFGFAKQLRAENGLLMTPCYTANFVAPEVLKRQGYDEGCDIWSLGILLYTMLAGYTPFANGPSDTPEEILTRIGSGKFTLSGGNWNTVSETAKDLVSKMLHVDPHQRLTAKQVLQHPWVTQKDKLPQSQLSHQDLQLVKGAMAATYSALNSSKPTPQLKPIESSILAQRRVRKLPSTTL

| Structure (SMILES) | residual activity |
| --- | --- |
| N/C(=N\N=C/c1ccc(-c2cccc([N+](=O)[O-])c2)o1)N[N+](=O)[O-] | 86.3% |
| O=C1NC(=O)c2cc(Nc3ccc(F)cc3)c(Nc3ccc(F)cc3)cc21 | 97.7% |
| CCCCc1c(-c2ccc(O)cc2)[nH]c2nccnc12 | 82.6% |
| O=c1c2ccccc2[nH]c(=S)n1CCN1CCC(=C(c2ccc(F)cc2)c2ccc(F)cc2)CC1 | 97.9% |

Each compound was assayed against NEK7 (human) (UniProt Q8TDX7) in the same assay as above. Conditions: compound 0.5 µM; ATP 10 µM.
Sequence of NEK7 (human) (Q8TDX7 whole entry, looked up): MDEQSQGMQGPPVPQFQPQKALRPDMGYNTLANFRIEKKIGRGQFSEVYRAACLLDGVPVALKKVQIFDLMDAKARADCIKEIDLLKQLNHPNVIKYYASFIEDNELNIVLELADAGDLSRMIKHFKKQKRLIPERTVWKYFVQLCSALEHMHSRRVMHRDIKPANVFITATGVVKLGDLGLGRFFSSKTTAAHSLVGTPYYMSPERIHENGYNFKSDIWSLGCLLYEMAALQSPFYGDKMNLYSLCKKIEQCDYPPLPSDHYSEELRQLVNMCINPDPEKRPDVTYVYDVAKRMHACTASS

| Structure (SMILES) | residual activity |
| --- | --- |
| N/C(=N\N=C/c1ccc(-c2cccc([N+](=O)[O-])c2)o1)N[N+](=O)[O-] | 102% |
| O=C1NC(=O)c2cc(Nc3ccc(F)cc3)c(Nc3ccc(F)cc3)cc21 | 103% |
| CCCCc1c(-c2ccc(O)cc2)[nH]c2nccnc12 | 111% |
| O=c1c2ccccc2[nH]c(=S)n1CCN1CCC(=C(c2ccc(F)cc2)c2ccc(F)cc2)CC1 | 100% |

Each compound was assayed against PLK1 (human) (UniProt P53350) in the same assay as above. Conditions: compound 0.5 µM; ATP 10 µM.

| Structure (SMILES) | residual activity |
| --- | --- |
| N/C(=N\N=C/c1ccc(-c2cccc([N+](=O)[O-])c2)o1)N[N+](=O)[O-] | 98.6% |
| O=C1NC(=O)c2cc(Nc3ccc(F)cc3)c(Nc3ccc(F)cc3)cc21 | 99.9% |
| CCCCc1c(-c2ccc(O)cc2)[nH]c2nccnc12 | 96.6% |
| O=c1c2ccccc2[nH]c(=S)n1CCN1CCC(=C(c2ccc(F)cc2)c2ccc(F)cc2)CC1 | 100% |

What follows are compounds tested against PASK (human) (UniProt Q96RG2) in the same assay as above. Conditions: compound 0.5 µM; ATP 10 µM.

| Structure (SMILES) | residual activity |
| --- | --- |
| N/C(=N\N=C/c1ccc(-c2cccc([N+](=O)[O-])c2)o1)N[N+](=O)[O-] | 88.4% |
| O=C1NC(=O)c2cc(Nc3ccc(F)cc3)c(Nc3ccc(F)cc3)cc21 | 91.3% |
| CCCCc1c(-c2ccc(O)cc2)[nH]c2nccnc12 | 99.5% |
| O=c1c2ccccc2[nH]c(=S)n1CCN1CCC(=C(c2ccc(F)cc2)c2ccc(F)cc2)CC1 | 99% |

The compounds below were run against MAP3K8 (human) (UniProt P41279) in the same assay as above. Conditions: compound 0.5 µM; ATP 10 µM.

| Structure (SMILES) | residual activity |
| --- | --- |
| N/C(=N\N=C/c1ccc(-c2cccc([N+](=O)[O-])c2)o1)N[N+](=O)[O-] | 98.8% |
| O=C1NC(=O)c2cc(Nc3ccc(F)cc3)c(Nc3ccc(F)cc3)cc21 | 96.3% |
| CCCCc1c(-c2ccc(O)cc2)[nH]c2nccnc12 | 111% |
| O=c1c2ccccc2[nH]c(=S)n1CCN1CCC(=C(c2ccc(F)cc2)c2ccc(F)cc2)CC1 | 100% |

These compounds were tested against CSNK1A1 (human) (UniProt P48729) in the same assay as above. Conditions: compound 0.5 µM; ATP 10 µM.
Sequence of CSNK1A1 (human) (P48729 whole entry, looked up): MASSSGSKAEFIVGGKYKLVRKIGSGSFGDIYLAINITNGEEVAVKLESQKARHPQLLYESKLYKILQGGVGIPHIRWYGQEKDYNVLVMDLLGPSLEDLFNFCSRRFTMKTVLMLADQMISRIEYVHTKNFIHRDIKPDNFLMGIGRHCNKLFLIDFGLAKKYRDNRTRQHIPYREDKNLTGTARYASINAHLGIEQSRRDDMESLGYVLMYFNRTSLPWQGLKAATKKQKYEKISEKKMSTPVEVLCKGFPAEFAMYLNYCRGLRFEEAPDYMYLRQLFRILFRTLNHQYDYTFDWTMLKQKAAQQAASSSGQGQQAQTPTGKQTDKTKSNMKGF

| Structure (SMILES) | residual activity |
| --- | --- |
| N/C(=N\N=C/c1ccc(-c2cccc([N+](=O)[O-])c2)o1)N[N+](=O)[O-] | 113% |
| O=C1NC(=O)c2cc(Nc3ccc(F)cc3)c(Nc3ccc(F)cc3)cc21 | 88% |
| CCCCc1c(-c2ccc(O)cc2)[nH]c2nccnc12 | 92.9% |
| O=c1c2ccccc2[nH]c(=S)n1CCN1CCC(=C(c2ccc(F)cc2)c2ccc(F)cc2)CC1 | 106% |

What follows are compounds tested against ACVRL1 (human) (UniProt P37023) in the same assay as above. Conditions: compound 0.5 µM; ATP 10 µM.
Sequence of ACVRL1 (human) (P37023 whole entry, looked up): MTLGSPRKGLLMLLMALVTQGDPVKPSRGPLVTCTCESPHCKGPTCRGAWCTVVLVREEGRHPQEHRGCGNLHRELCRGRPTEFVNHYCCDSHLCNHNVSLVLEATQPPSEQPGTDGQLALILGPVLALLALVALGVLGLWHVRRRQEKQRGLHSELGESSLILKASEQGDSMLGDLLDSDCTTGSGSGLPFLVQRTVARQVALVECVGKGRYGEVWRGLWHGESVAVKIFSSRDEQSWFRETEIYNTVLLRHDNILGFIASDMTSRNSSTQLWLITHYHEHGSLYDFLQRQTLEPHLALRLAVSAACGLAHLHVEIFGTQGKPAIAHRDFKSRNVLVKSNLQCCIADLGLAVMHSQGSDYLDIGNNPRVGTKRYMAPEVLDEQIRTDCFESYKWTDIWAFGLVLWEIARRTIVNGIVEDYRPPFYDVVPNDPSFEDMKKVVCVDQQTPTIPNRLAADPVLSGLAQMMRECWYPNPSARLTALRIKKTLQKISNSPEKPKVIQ

| Structure (SMILES) | residual activity |
| --- | --- |
| N/C(=N\N=C/c1ccc(-c2cccc([N+](=O)[O-])c2)o1)N[N+](=O)[O-] | 106% |
| O=C1NC(=O)c2cc(Nc3ccc(F)cc3)c(Nc3ccc(F)cc3)cc21 | 95.9% |
| CCCCc1c(-c2ccc(O)cc2)[nH]c2nccnc12 | 76.2% |
| O=c1c2ccccc2[nH]c(=S)n1CCN1CCC(=C(c2ccc(F)cc2)c2ccc(F)cc2)CC1 | 101% |

Each compound was assayed against DYRK4 (human) (UniProt Q9NR20) in the same assay as above. Conditions: compound 0.5 µM; ATP 10 µM.
Sequence of DYRK4 (human) (Q9NR20 whole entry, looked up): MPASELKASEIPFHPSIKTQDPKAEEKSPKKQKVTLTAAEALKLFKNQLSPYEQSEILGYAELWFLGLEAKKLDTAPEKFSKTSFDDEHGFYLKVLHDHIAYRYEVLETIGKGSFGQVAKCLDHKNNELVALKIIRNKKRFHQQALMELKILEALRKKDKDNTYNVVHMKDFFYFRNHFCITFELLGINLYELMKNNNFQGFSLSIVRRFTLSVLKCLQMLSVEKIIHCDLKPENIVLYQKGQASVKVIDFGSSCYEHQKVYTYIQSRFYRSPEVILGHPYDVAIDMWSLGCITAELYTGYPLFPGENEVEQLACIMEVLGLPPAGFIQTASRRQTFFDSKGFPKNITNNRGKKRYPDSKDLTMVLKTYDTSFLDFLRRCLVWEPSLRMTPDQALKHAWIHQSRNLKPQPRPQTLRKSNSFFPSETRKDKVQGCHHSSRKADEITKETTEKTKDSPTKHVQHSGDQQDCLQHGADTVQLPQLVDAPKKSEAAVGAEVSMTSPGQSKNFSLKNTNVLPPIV

| Structure (SMILES) | residual activity |
| --- | --- |
| N/C(=N\N=C/c1ccc(-c2cccc([N+](=O)[O-])c2)o1)N[N+](=O)[O-] | 92.7% |
| O=C1NC(=O)c2cc(Nc3ccc(F)cc3)c(Nc3ccc(F)cc3)cc21 | 98.6% |
| CCCCc1c(-c2ccc(O)cc2)[nH]c2nccnc12 | 99.7% |
| O=c1c2ccccc2[nH]c(=S)n1CCN1CCC(=C(c2ccc(F)cc2)c2ccc(F)cc2)CC1 | 97.5% |

What follows are compounds tested against GRK7 (human) (UniProt Q8WTQ7) in the same assay as above. Conditions: compound 0.5 µM; ATP 10 µM.

| Structure (SMILES) | residual activity |
| --- | --- |
| N/C(=N\N=C/c1ccc(-c2cccc([N+](=O)[O-])c2)o1)N[N+](=O)[O-] | 97% |
| O=C1NC(=O)c2cc(Nc3ccc(F)cc3)c(Nc3ccc(F)cc3)cc21 | 106% |
| CCCCc1c(-c2ccc(O)cc2)[nH]c2nccnc12 | 82.4% |
| O=c1c2ccccc2[nH]c(=S)n1CCN1CCC(=C(c2ccc(F)cc2)c2ccc(F)cc2)CC1 | 111% |

What follows are compounds tested against TAOK3 (human) (UniProt Q9H2K8) in the same assay as above. Conditions: compound 0.5 µM; ATP 10 µM.

| Structure (SMILES) | residual activity |
| --- | --- |
| N/C(=N\N=C/c1ccc(-c2cccc([N+](=O)[O-])c2)o1)N[N+](=O)[O-] | 99.5% |
| O=C1NC(=O)c2cc(Nc3ccc(F)cc3)c(Nc3ccc(F)cc3)cc21 | 89.9% |
| CCCCc1c(-c2ccc(O)cc2)[nH]c2nccnc12 | 82.5% |
| O=c1c2ccccc2[nH]c(=S)n1CCN1CCC(=C(c2ccc(F)cc2)c2ccc(F)cc2)CC1 | 92.4% |

What follows are compounds tested against PRKCB1 (human) (UniProt P05771) in the same assay as above. Conditions: compound 0.5 µM; ATP 10 µM.
Sequence of PRKCB1 (human) (P05771 whole entry, looked up): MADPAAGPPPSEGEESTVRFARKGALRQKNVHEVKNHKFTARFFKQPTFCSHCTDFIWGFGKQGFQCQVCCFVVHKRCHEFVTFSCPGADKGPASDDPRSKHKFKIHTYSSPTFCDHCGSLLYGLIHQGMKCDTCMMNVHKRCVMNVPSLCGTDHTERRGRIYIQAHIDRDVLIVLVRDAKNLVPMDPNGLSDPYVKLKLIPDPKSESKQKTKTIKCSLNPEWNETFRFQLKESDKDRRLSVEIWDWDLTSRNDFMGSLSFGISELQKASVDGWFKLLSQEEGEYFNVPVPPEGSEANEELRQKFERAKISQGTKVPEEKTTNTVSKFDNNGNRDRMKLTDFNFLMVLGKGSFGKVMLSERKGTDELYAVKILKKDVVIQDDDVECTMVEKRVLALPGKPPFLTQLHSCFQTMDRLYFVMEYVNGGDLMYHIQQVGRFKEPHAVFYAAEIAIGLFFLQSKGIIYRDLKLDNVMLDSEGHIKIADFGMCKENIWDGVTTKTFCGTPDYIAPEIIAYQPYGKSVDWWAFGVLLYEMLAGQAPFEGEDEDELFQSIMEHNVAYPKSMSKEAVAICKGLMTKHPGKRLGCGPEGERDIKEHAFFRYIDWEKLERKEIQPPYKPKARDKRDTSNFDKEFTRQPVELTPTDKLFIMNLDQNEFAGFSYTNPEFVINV

| Structure (SMILES) | residual activity |
| --- | --- |
| N/C(=N\N=C/c1ccc(-c2cccc([N+](=O)[O-])c2)o1)N[N+](=O)[O-] | 88.9% |
| O=C1NC(=O)c2cc(Nc3ccc(F)cc3)c(Nc3ccc(F)cc3)cc21 | 28.2% |
| CCCCc1c(-c2ccc(O)cc2)[nH]c2nccnc12 | 95.5% |
| O=c1c2ccccc2[nH]c(=S)n1CCN1CCC(=C(c2ccc(F)cc2)c2ccc(F)cc2)CC1 | 96% |

What follows are compounds tested against SRPK3 (human) (UniProt Q9UPE1) in the same assay as above. Conditions: compound 0.5 µM; ATP 10 µM.
Sequence of SRPK3 (human) (Q9UPE1 whole entry, looked up): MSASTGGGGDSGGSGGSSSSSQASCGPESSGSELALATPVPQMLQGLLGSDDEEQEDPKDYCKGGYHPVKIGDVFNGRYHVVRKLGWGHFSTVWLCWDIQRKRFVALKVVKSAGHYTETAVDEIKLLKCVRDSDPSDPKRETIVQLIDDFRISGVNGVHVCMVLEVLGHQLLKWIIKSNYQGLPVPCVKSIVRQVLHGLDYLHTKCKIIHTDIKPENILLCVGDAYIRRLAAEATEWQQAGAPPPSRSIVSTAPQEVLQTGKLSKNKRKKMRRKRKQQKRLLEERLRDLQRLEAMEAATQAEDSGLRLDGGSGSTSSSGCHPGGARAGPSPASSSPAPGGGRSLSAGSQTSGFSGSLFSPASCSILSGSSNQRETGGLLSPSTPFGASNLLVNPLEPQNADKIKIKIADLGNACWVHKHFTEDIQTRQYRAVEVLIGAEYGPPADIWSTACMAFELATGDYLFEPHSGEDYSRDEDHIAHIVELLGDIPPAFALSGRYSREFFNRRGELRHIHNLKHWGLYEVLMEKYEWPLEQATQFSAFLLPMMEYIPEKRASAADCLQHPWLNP

| Structure (SMILES) | residual activity |
| --- | --- |
| N/C(=N\N=C/c1ccc(-c2cccc([N+](=O)[O-])c2)o1)N[N+](=O)[O-] | 100% |
| O=C1NC(=O)c2cc(Nc3ccc(F)cc3)c(Nc3ccc(F)cc3)cc21 | 98% |
| CCCCc1c(-c2ccc(O)cc2)[nH]c2nccnc12 | 98.6% |
| O=c1c2ccccc2[nH]c(=S)n1CCN1CCC(=C(c2ccc(F)cc2)c2ccc(F)cc2)CC1 | 102% |

These compounds were tested against STK17A (human) (UniProt Q9UEE5) in the same assay as above. Conditions: compound 0.5 µM; ATP 10 µM.
Sequence of STK17A (human) (Q9UEE5 whole entry, looked up): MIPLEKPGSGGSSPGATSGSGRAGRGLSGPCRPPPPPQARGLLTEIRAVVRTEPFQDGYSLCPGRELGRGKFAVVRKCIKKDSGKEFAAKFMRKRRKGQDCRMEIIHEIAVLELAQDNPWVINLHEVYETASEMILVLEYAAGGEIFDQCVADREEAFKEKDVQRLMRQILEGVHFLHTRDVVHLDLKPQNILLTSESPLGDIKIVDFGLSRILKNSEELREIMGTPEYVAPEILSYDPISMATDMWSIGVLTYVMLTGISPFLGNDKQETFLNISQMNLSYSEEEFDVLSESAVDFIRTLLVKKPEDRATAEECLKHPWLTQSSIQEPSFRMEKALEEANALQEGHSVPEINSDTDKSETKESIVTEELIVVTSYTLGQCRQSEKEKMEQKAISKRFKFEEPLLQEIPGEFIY

| Structure (SMILES) | residual activity |
| --- | --- |
| N/C(=N\N=C/c1ccc(-c2cccc([N+](=O)[O-])c2)o1)N[N+](=O)[O-] | 100% |
| O=C1NC(=O)c2cc(Nc3ccc(F)cc3)c(Nc3ccc(F)cc3)cc21 | 104% |
| CCCCc1c(-c2ccc(O)cc2)[nH]c2nccnc12 | 84.9% |
| O=c1c2ccccc2[nH]c(=S)n1CCN1CCC(=C(c2ccc(F)cc2)c2ccc(F)cc2)CC1 | 103% |

These compounds were tested against ACVR1 (human) (UniProt Q04771) in the same assay as above. Conditions: compound 0.5 µM; ATP 10 µM.

| Structure (SMILES) | residual activity |
| --- | --- |
| N/C(=N\N=C/c1ccc(-c2cccc([N+](=O)[O-])c2)o1)N[N+](=O)[O-] | 98% |
| O=C1NC(=O)c2cc(Nc3ccc(F)cc3)c(Nc3ccc(F)cc3)cc21 | 92.3% |
| CCCCc1c(-c2ccc(O)cc2)[nH]c2nccnc12 | 83.8% |
| O=c1c2ccccc2[nH]c(=S)n1CCN1CCC(=C(c2ccc(F)cc2)c2ccc(F)cc2)CC1 | 107% |

These compounds were tested against FER (human) (UniProt P16591) in the same assay as above. Conditions: compound 0.5 µM; ATP 10 µM.

| Structure (SMILES) | residual activity |
| --- | --- |
| N/C(=N\N=C/c1ccc(-c2cccc([N+](=O)[O-])c2)o1)N[N+](=O)[O-] | 94.7% |
| O=C1NC(=O)c2cc(Nc3ccc(F)cc3)c(Nc3ccc(F)cc3)cc21 | 96.4% |
| CCCCc1c(-c2ccc(O)cc2)[nH]c2nccnc12 | 55.6% |
| O=c1c2ccccc2[nH]c(=S)n1CCN1CCC(=C(c2ccc(F)cc2)c2ccc(F)cc2)CC1 | 95.2% |

Each compound was assayed against MAP3K5 (human) (UniProt Q99683) in the same assay as above. Conditions: compound 0.5 µM; ATP 10 µM.

| Structure (SMILES) | residual activity |
| --- | --- |
| N/C(=N\N=C/c1ccc(-c2cccc([N+](=O)[O-])c2)o1)N[N+](=O)[O-] | 92.5% |
| O=C1NC(=O)c2cc(Nc3ccc(F)cc3)c(Nc3ccc(F)cc3)cc21 | 96.6% |
| CCCCc1c(-c2ccc(O)cc2)[nH]c2nccnc12 | 99.3% |
| O=c1c2ccccc2[nH]c(=S)n1CCN1CCC(=C(c2ccc(F)cc2)c2ccc(F)cc2)CC1 | 98.1% |

What follows are compounds tested against MST1R (human) (UniProt Q04912) in the same assay as above. Conditions: compound 0.5 µM; ATP 10 µM.

| Structure (SMILES) | residual activity |
| --- | --- |
| N/C(=N\N=C/c1ccc(-c2cccc([N+](=O)[O-])c2)o1)N[N+](=O)[O-] | 97.6% |
| O=C1NC(=O)c2cc(Nc3ccc(F)cc3)c(Nc3ccc(F)cc3)cc21 | 100% |
| CCCCc1c(-c2ccc(O)cc2)[nH]c2nccnc12 | 101% |
| O=c1c2ccccc2[nH]c(=S)n1CCN1CCC(=C(c2ccc(F)cc2)c2ccc(F)cc2)CC1 | 103% |

The compounds below were run against AURKC (human) (UniProt Q9UQB9) in the same assay as above. Conditions: compound 0.5 µM; ATP 10 µM.

| Structure (SMILES) | residual activity |
| --- | --- |
| N/C(=N\N=C/c1ccc(-c2cccc([N+](=O)[O-])c2)o1)N[N+](=O)[O-] | 90.5% |
| O=C1NC(=O)c2cc(Nc3ccc(F)cc3)c(Nc3ccc(F)cc3)cc21 | 90.8% |
| CCCCc1c(-c2ccc(O)cc2)[nH]c2nccnc12 | 44.9% |
| O=c1c2ccccc2[nH]c(=S)n1CCN1CCC(=C(c2ccc(F)cc2)c2ccc(F)cc2)CC1 | 99.4% |

Each compound was assayed against MAP3K14 (human) (UniProt Q99558) in the same assay as above. Conditions: compound 0.5 µM; ATP 10 µM.
Sequence of MAP3K14 (human) (Q99558 whole entry, looked up): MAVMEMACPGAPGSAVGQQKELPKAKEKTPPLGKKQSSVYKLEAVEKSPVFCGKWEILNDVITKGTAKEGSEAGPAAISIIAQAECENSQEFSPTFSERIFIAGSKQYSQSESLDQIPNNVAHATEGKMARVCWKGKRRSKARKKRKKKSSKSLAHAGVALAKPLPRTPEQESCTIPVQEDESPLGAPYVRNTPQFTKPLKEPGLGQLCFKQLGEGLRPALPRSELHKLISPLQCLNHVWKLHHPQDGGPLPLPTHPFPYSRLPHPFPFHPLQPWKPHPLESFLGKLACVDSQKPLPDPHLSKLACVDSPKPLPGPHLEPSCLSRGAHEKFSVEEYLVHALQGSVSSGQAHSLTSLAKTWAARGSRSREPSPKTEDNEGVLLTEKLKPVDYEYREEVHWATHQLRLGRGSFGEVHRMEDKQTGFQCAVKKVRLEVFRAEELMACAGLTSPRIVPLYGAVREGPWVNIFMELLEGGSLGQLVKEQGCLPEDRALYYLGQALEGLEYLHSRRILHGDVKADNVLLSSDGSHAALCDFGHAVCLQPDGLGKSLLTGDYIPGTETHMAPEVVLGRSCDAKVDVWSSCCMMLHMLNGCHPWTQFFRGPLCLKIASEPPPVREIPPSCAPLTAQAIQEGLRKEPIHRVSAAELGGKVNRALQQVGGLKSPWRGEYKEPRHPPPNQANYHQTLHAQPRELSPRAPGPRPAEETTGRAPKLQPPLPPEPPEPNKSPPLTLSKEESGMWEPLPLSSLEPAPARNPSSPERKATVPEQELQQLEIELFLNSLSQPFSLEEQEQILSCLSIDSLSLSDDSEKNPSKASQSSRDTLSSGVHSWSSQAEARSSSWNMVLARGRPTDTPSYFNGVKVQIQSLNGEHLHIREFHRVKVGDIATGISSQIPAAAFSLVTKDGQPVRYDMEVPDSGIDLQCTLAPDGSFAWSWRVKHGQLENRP

| Structure (SMILES) | residual activity |
| --- | --- |
| N/C(=N\N=C/c1ccc(-c2cccc([N+](=O)[O-])c2)o1)N[N+](=O)[O-] | 77.9% |
| O=C1NC(=O)c2cc(Nc3ccc(F)cc3)c(Nc3ccc(F)cc3)cc21 | 117% |
| CCCCc1c(-c2ccc(O)cc2)[nH]c2nccnc12 | 95.4% |
| O=c1c2ccccc2[nH]c(=S)n1CCN1CCC(=C(c2ccc(F)cc2)c2ccc(F)cc2)CC1 | 75.7% |

These compounds were tested against FGFR4 (human) (UniProt P22455) in the same assay as above. Conditions: compound 0.5 µM; ATP 10 µM.

| Structure (SMILES) | residual activity |
| --- | --- |
| N/C(=N\N=C/c1ccc(-c2cccc([N+](=O)[O-])c2)o1)N[N+](=O)[O-] | 106% |
| O=C1NC(=O)c2cc(Nc3ccc(F)cc3)c(Nc3ccc(F)cc3)cc21 | 95.5% |
| CCCCc1c(-c2ccc(O)cc2)[nH]c2nccnc12 | 91.8% |
| O=c1c2ccccc2[nH]c(=S)n1CCN1CCC(=C(c2ccc(F)cc2)c2ccc(F)cc2)CC1 | 105% |
